The numbers were not newly measured in US11931454B2, “Wet-packed soft hydrogel ocular inserts” (Alcon Inc., priority 2019, dated 2024), which cites them from elsewhere.

For this data set the following is noted: arylboronic acid group of the monomer.
Take 3-(meth)acrylamidophenylboronic acid: the pKa is roughly 8.2.

For the compound `C=Cc1ccc(CN(C)C)c(B(O)O)c1` [2-Dimethylaminomethyl-5-vinylphenylboronic acid], the pKa was less than 7.8.

“4-(1,6-Dioxo-2,5-diaza-7-oxamyl)phenylboronic acid”: the pKa was roughly 7.8.

As to `C=CCNS(=O)(=O)c1ccc(B(O)O)cc1` [4-(N-allylsulfamoyl)phenylboronic acid], the pKa is recorded as roughly 7.4.

`C=CCCS(=O)(=O)c1ccc(B(O)O)cc1` [4-(3-Butenylsulfonyl)phenylboronic acid]: the pKa is given as roughly 7.1.
